According to ChEMBL document CHEMBL4229379, “Synthesis and structure-activity relationship of novel bisindole amidines active against MDR Gram-positive and Gram-negative bacteria” (Eur J Med Chem, 2018):
Values after ≈ are worked out from the molar mass of the structure shown.

What was measured:
Enterococcus faecalis [1] = assay: Antibacterial activity against vancomycin-resistant Enterococcus faecalis ATCC 51299 after 18 hrs by CLSI broth microdilution method; assay type: functional; conditions: ATCC 51299, 18 h
Pseudomonas aeruginosa [2] = assay: Antibacterial activity against Pseudomonas aeruginosa ATCC 27853 after 18 hrs by CLSI broth microdilution method; assay type: functional; conditions: ATCC 27853, 18 h
Enterococcus faecalis [3] = assay: Antibacterial activity against vancomycin-sensitive Enterococcus faecalis 12-5 after 18 hrs by CLSI broth microdilution method; assay type: functional; conditions: 12-5, 18 h
Staphylococcus aureus [4] = assay: Antibacterial activity against methicillin-resistant Staphylococcus aureus ATCC 33591 after 18 hrs by CLSI broth microdilution method; assay type: functional; conditions: ATCC 33591, 18 h
[5] = tested on: Staphylococcus epidermidis; assay: Antibacterial activity against methicillin-resistant Staphylococcus epidermidis 12-8 after 18 hrs by CLSI broth microdilution method; assay type: functional; conditions: 12-8, 18 h
Enterococcus faecalis [6] = assay: Antibacterial activity against vancomycin-resistant Enterococcus faecalis 09-9 after 18 hrs by CLSI broth microdilution method; assay type: functional; conditions: 09-9, 18 h
[7] = tested on: Stenotrophomonas maltophilia; assay: Antibacterial activity against Stenotrophomonas maltophilia ATCC 13636 after 18 hrs by CLSI broth microdilution method; assay type: functional; conditions: ATCC 13636, 18 h
Staphylococcus aureus [8] = assay: Antibacterial activity against methicillin-resistant Staphylococcus aureus 12-33 after 18 hrs by CLSI broth microdilution method; assay type: functional; conditions: 12-33, 18 h
Citrobacter freundii = assay: Antibacterial activity against Citrobacter freundii ATCC 43864 after 18 hrs by CLSI broth microdilution method; assay type: functional; conditions: ATCC 43864, 18 h
Klebsiella pneumoniae [9] = assay: Antibacterial activity against extended-spectrum beta-lactamase deficient Klebsiella pneumoniae 12-4 after 18 hrs by CLSI broth microdilution method; assay type: functional; conditions: 12-4, 18 h
[10] = tested on: Acinetobacter calcoaceticus; assay: Antibacterial activity against Acinetobacter calcoaceticus ATCC 19606 after 18 hrs by CLSI broth microdilution method; assay type: functional; conditions: ATCC 19606, 18 h
Proteus mirabilis = assay: Antibacterial activity against Proteus mirabilis 12-6 after 18 hrs by CLSI broth microdilution method; assay type: functional; conditions: 12-6, 18 h
Klebsiella pneumoniae [11] = assay: Antibacterial activity against extended-spectrum beta-lactamase deficient Klebsiella pneumoniae 7 after 18 hrs by CLSI broth microdilution method; assay type: functional; conditions: Klebsiella pneumoniae, 7, 18 h
Staphylococcus aureus [12] = assay: Antibacterial activity against methicillin-sensitive Staphylococcus aureus 12-28 after 18 hrs by CLSI broth microdilution method; assay type: functional; conditions: 12-28, 18 h
Staphylococcus aureus [13] = assay: Antibacterial activity against methicillin-sensitive Staphylococcus aureus 15 after 18 hrs by CLSI broth microdilution method; assay type: functional; conditions: Staphylococcus aureus, 15, 18 h
Enterococcus faecium [14] = assay: Antibacterial activity against vancomycin-resistant Enterococcus faecium ATCC 700221 after 18 hrs by CLSI broth microdilution method; assay type: functional; conditions: ATCC 700221, 18 h
Pseudomonas aeruginosa [15] = assay: Antibacterial activity against Pseudomonas aeruginosa 12-16 after 18 hrs by CLSI broth microdilution method; assay type: functional; conditions: 12-16, 18 h
Escherichia coli [16] = assay: Antibacterial activity against extended-spectrum beta-lactamase deficient Escherichia coli 12-14 after 18 hrs by CLSI broth microdilution method; assay type: functional; conditions: 12-14, 18 h
[17] = tested on: Staphylococcus epidermidis; assay: Antibacterial activity against methicillin-sensitive Staphylococcus epidermidis 12-6 after 18 hrs by CLSI broth microdilution method; assay type: functional; conditions: 12-6, 18 h
[18] = tested on: Staphylococcus epidermidis; assay: Antibacterial activity against methicillin-sensitive Staphylococcus epidermidis ATCC 12228 after 18 hrs by CLSI broth microdilution method; assay type: functional; conditions: ATCC 12228, 18 h
[19] = Cytotoxicity against HEK293T cells assessed as reduction in cell viability after 48 hrs by MTS assay; assay type: cell-based, HEK-293T; conditions: human
Klebsiella pneumoniae [20] = assay: Antibacterial activity against new delhi metallo-beta-lactamase-1 harboring Klebsiella pneumoniae ATCC BAA-2146 after 18 hrs by CLSI broth microdilution method; assay type: functional; conditions: ATCC BAA-2146, 18 h
Klebsiella aerogenes = assay: Antibacterial activity against Enterobacter aerogenes ATCC 13048 after 18 hrs by CLSI broth microdilution method; assay type: functional; conditions: ATCC 13048, 18 h
Enterobacter cloacae = assay: Antibacterial activity against Enterobacter cloacae ATCC 43560 after 18 hrs by CLSI broth microdilution method; assay type: functional; conditions: ATCC 43560, 18 h
Escherichia coli [21] = assay: Antibacterial activity against extended-spectrum beta-lactamase deficient Escherichia coli ATCC 25922 after 18 hrs by CLSI broth microdilution method; assay type: functional; conditions: ATCC 25922, 18 h
Enterococcus faecalis [22] = assay: Antibacterial activity against vancomycin-sensitive Enterococcus faecalis ATCC 29212 after 18 hrs by CLSI broth microdilution method; assay type: functional; conditions: ATCC 29212, 18 h
Enterococcus faecium [23] = assay: Antibacterial activity against vancomycin-resistant Enterococcus faecium 12-1 after 18 hrs by CLSI broth microdilution method; assay type: functional; conditions: 12-1, 18 h
Klebsiella pneumoniae [24] = assay: Antibacterial activity against extended-spectrum beta-lactamase harboring Klebsiella pneumoniae 12-8 after 18 hrs by CLSI broth microdilution method; assay type: functional; conditions: 12-8, 18 h
Pseudomonas aeruginosa [25] = assay: Antibacterial activity against Pseudomonas aeruginosa PAO1 after 18 hrs by CLSI broth microdilution method; assay type: functional; conditions: PAO1, 18 h
Serratia marcescens = assay: Antibacterial activity against Serratia marcescens ATCC 21074 after 18 hrs by CLSI broth microdilution method; assay type: functional; conditions: ATCC 21074, 18 h
Staphylococcus aureus [26] = assay: Antibacterial activity against methicillin-sensitive Staphylococcus aureus ATCC 29213 after 18 hrs by CLSI broth microdilution method; assay type: functional; conditions: ATCC 29213, 18 h
Escherichia coli [27] = assay: Antibacterial activity against extended-spectrum beta-lactamase harboring Escherichia coli 12-15 after 18 hrs by CLSI broth microdilution method; assay type: functional; conditions: 12-15, 18 h
Proteus vulgaris = assay: Antibacterial activity against Proteus vulgaris ATCC 29905 after 18 hrs by CLSI broth microdilution method; assay type: functional; conditions: ATCC 29905, 18 h
Enterococcus faecium [28] = assay: Antibacterial activity against vancomycin-sensitive Enterococcus faecium 12-3 after 18 hrs by CLSI broth microdilution method; assay type: functional; conditions: 12-3, 18 h
Providencia rettgeri = assay: Antibacterial activity against Providencia rettgeri ATCC 31052 after 18 hrs by CLSI broth microdilution method; assay type: functional; conditions: ATCC 31052, 18 h
Klebsiella pneumoniae [29] = assay: Antibacterial activity against extended-spectrum beta-lactamase harboring Klebsiella pneumoniae ATCC 700603 after 18 hrs by CLSI broth microdilution method; assay type: functional; conditions: Klebsiella pneumoniae, 700603, 18 h
Escherichia coli [30] = assay: Antibacterial activity against extended-spectrum beta-lactamase deficient Escherichia coli 1515 after 18 hrs by CLSI broth microdilution method; assay type: functional; conditions: Escherichia coli, 1515, 18 h

SMILES	MIC (Enterococcus faecalis [1])	MIC (Pseudomonas aeruginosa [2])	MIC (Enterococcus faecalis [3])	MIC (Staphylococcus aureus [4])	MIC [5]	MIC (Enterococcus faecalis [6])	MIC [7]	MIC (Staphylococcus aureus [8])	MIC (Citrobacter freundii)	MIC (Klebsiella pneumoniae [9])	MIC [10]	MIC (Proteus mirabilis)	MIC (Klebsiella pneumoniae [11])	MIC (Staphylococcus aureus [12])	MIC (Staphylococcus aureus [13])	MIC (Enterococcus faecium [14])	MIC (Pseudomonas aeruginosa [15])	MIC (Escherichia coli [16])	MIC [17]	MIC [18]	other results
CN(C)C(=N)c1ccc2cc(-c3cnc(-c4cc5ccc(C(=N)N(C)C)cc5[nH]4)cn3)[nH]c2c1	8 µg/mL (≈ 17.8 µM)	128 µg/mL (≈ 284 µM)	8 µg/mL (≈ 17.8 µM)	1 µg/mL (≈ 2.22 µM)	1 µg/mL (≈ 2.22 µM)	4 µg/mL (≈ 8.88 µM)	32 µg/mL (≈ 71 µM)	4 µg/mL (≈ 8.88 µM)	8 µg/mL (≈ 17.8 µM)	16 µg/mL (≈ 35.5 µM)	32 µg/mL (≈ 71 µM)	64 µg/mL (≈ 142 µM)	16 µg/mL (≈ 35.5 µM)	1 µg/mL (≈ 2.22 µM)	1 µg/mL (≈ 2.22 µM)	4 µg/mL (≈ 8.88 µM)	> 128 µg/mL	4 µg/mL (≈ 8.88 µM)	4 µg/mL (≈ 8.88 µM)	0.5 µg/mL (≈ 1.11 µM)	CC50 at 48 h [19]: 13 µg/mL (≈ 28.8 µM); MIC (Klebsiella pneumoniae [20]): 16 µg/mL (≈ 35.5 µM); MIC (Klebsiella aerogenes): 16 µg/mL (≈ 35.5 µM); MIC (Enterobacter cloacae): 8 µg/mL (≈ 17.8 µM); MIC (Escherichia coli [21]): 4 µg/mL (≈ 8.88 µM); MIC (Enterococcus faecalis [22]): 4 µg/mL (≈ 8.88 µM); MIC (Enterococcus faecium [23]): 2 µg/mL (≈ 4.44 µM); MIC (Klebsiella pneumoniae [24]): 16 µg/mL (≈ 35.5 µM); MIC (Pseudomonas aeruginosa [25]): > 128 µg/mL; MIC (Serratia marcescens): 128 µg/mL (≈ 284 µM); MIC (Staphylococcus aureus [26]): 1 µg/mL (≈ 2.22 µM); MIC (Escherichia coli [27]): 16 µg/mL (≈ 35.5 µM); MIC (Proteus vulgaris): 16 µg/mL (≈ 35.5 µM); MIC (Enterococcus faecium [28]): 4 µg/mL (≈ 8.88 µM); MIC (Providencia rettgeri): 16 µg/mL (≈ 35.5 µM); MIC (Klebsiella pneumoniae [29]): 64 µg/mL (≈ 142 µM); MIC (Escherichia coli [30]): 4 µg/mL (≈ 8.88 µM)
CN(C)C(=N)c1ccc2cc(-c3ccc(-c4cc5ccc(C(=N)N(C)C)cc5[nH]4)nc3)[nH]c2c1	4 µg/mL (≈ 8.9 µM)	64 µg/mL (≈ 142 µM)	4 µg/mL (≈ 8.9 µM)	1 µg/mL (≈ 2.22 µM)	1 µg/mL (≈ 2.22 µM)	4 µg/mL (≈ 8.9 µM)	128 µg/mL (≈ 285 µM)	2 µg/mL (≈ 4.45 µM)	16 µg/mL (≈ 35.6 µM)	32 µg/mL (≈ 71.2 µM)	> 128 µg/mL	> 128 µg/mL	16 µg/mL (≈ 35.6 µM)	1 µg/mL (≈ 2.22 µM)	1 µg/mL (≈ 2.22 µM)	4 µg/mL (≈ 8.9 µM)	> 128 µg/mL	4 µg/mL (≈ 8.9 µM)	2 µg/mL (≈ 4.45 µM)	0.5 µg/mL (≈ 1.11 µM)	CC50 at 48 h [19]: 11.7 µg/mL (≈ 26 µM); MIC (Klebsiella pneumoniae [20]): 32 µg/mL (≈ 71.2 µM); MIC (Klebsiella aerogenes): 16 µg/mL (≈ 35.6 µM); MIC (Enterobacter cloacae): 8 µg/mL (≈ 17.8 µM); MIC (Escherichia coli [21]): 4 µg/mL (≈ 8.9 µM); MIC (Enterococcus faecalis [22]): 4 µg/mL (≈ 8.9 µM); MIC (Enterococcus faecium [23]): 2 µg/mL (≈ 4.45 µM); MIC (Klebsiella pneumoniae [24]): 32 µg/mL (≈ 71.2 µM); MIC (Pseudomonas aeruginosa [25]): > 128 µg/mL; MIC (Serratia marcescens): > 128 µg/mL; MIC (Staphylococcus aureus [26]): 1 µg/mL (≈ 2.22 µM); MIC (Escherichia coli [27]): 4 µg/mL (≈ 8.9 µM); MIC (Proteus vulgaris): 16 µg/mL (≈ 35.6 µM); MIC (Enterococcus faecium [28]): 4 µg/mL (≈ 8.9 µM); MIC (Providencia rettgeri): 16 µg/mL (≈ 35.6 µM); MIC (Klebsiella pneumoniae [29]): > 128 µg/mL; MIC (Escherichia coli [30]): 4 µg/mL (≈ 8.9 µM)
